# Read-outs that look alike come from different tables or passages of the source.
# Tests used:
# [1] = biological target: recombinant human kinase domain of JAK1 (Homo sapiens (Human), UniProt P23458); assay: JAK Caliper enzyme assay at 1 mM ATP (JAK1); type: biochemical;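 note: microfluidic mobility-shift readout of synthetic fluorescent peptide phosphorylation, percent product converted from peak height, inhibition relative to DMSO-only wells as uninhibited baseline, room temperature incubation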
# recombinant human kinase domain of JAK1, sequence (P23458 875-1153): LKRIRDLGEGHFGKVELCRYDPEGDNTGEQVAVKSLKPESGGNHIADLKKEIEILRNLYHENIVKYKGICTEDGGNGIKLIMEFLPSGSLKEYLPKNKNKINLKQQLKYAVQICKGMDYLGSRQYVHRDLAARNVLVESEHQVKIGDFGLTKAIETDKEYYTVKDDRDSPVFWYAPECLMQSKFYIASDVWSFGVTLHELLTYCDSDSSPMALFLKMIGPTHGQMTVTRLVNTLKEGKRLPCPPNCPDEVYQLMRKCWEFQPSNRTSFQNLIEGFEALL
# [2] = biological target: recombinant human kinase domain of JAK2 (Homo sapiens (Human), UniProt O60674); assay: JAK Caliper enzyme assay at 1 mM ATP (JAK2); type: biochemical;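 note: microfluidic mobility-shift read-out of fluorescent synthetic peptide phosphorylation, percent product converted from peak heights, room temperature, DMSO-only wells as uninhibited baseline, inhibition curve fit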
# recombinant human kinase domain of JAK2, sequence (O60674 849-1124): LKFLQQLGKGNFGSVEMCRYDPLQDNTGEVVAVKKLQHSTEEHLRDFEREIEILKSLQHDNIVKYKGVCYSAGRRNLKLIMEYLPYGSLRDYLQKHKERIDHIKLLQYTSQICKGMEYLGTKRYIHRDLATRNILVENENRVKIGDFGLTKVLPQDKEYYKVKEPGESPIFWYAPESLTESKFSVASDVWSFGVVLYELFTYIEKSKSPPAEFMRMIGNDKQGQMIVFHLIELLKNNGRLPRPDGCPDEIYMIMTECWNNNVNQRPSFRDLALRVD
# [3] = biological target: recombinant human kinase domain of JAK3 (Homo sapiens (Human), UniProt P52333); assay: JAK Caliper enzyme assay at 1 mM ATP (JAK3); type: biochemical;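 note: microfluidic mobility-shift readout of synthetic peptide phosphorylation, percent product converted from peak heights, normalized to DMSO-only wells as uninhibited baseline, room temperature incubation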
# recombinant human kinase domain of JAK3, sequence (P52333 822-1111): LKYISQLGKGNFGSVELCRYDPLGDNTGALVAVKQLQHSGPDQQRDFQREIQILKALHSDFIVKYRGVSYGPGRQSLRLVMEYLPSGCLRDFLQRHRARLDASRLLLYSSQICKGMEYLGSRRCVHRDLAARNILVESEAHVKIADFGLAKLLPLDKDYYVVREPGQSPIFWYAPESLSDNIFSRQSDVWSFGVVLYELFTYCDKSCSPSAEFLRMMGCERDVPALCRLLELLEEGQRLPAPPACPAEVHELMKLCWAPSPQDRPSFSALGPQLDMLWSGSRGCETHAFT
# [4] = biological target: recombinant human kinase domain of TYK2 (Homo sapiens (Human), UniProt P29597); assay: JAK Caliper enzyme assay at 1 mM ATP (TYK2); type: biochemical;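 note: microfluidic mobility-shift readout of synthetic peptide phosphorylation by TYK2, tuned to 20–30% conversion at room temperature, reaction stopped with EDTA, DMSO-only wells as uninhibited baseline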
# recombinant human kinase domain of TYK2, sequence (P29597 897-1176): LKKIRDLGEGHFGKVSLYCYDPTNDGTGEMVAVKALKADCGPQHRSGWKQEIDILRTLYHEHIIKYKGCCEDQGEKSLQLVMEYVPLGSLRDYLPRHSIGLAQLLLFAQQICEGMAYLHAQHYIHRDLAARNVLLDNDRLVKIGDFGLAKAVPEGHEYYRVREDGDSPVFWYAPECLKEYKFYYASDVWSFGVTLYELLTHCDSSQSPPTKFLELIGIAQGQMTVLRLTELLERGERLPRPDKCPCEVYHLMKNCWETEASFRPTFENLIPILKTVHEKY
# [5] = test system: interferon alpha signalling (TYK2 and JAK1), STAT3 phosphorylation; assay: Human whole blood INFα induced STAT3 phosphorylation assay; type: cell-based; settings: compound 60 minutes at 37° C., IFNα 5000 U/ml for 15 minutes, pSTAT3 in lymphocyte population by flow cytometry, read-out: HWB IFN alpha IC50;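 note: flow cytometry with anti-pSTAT3 staining, signal as percent-positive × mean fluorescence, baseline from unstimulated wells, 11-point dilution series, IC50 as inhibition of pSTAT3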
# [6] = 1 mM ATP, read-out: IC50 (nM) JAK1
# [7] = 1 mM ATP, read-out: IC50 (nM) JAK3
# [8] = 1 mM ATP, read-out: IC50 (nM) TYK2
SMILES,"IC50 [1, 6] [nM]",IC50 [2] [nM],"IC50 [3, 7] [nM]","IC50 [4, 8] [nM]",IC50 [5] [nM],IC50 [4] [nM],IC50 [1] [nM],IC50 [3] [nM]
"CNC(=O)c1ncc(Nc2nccc(N3C[C@H]4CC[C@@H](C3)N4C(=O)C3CC3)n2)cc1Cl [Example 30, 3-chloro-5-({4-[(1R,5S)-8-(cyclopropylcarbonyl)-3,8-diazabicyclo[3.2.1]oct-3-yl]pyrimidin-2-yl}amino)-N-methylpyridine-2-carboxamide]",1160,2130,> 10000,97,653,–,–,–
"CNC(=O)c1ncc(Nc2nccc(N3C[C@H]4CC[C@@H](C3)N4C(=O)[C@@H]3C[C@H]3C#N)n2)cc1Cl [Example 31, 3-chloro-5-({4-[(1R,5S)-8-{[(1R,2R)-2-cyanocyclopropyl]carbonyl}-3,8-diazabicyclo[3.2.1]oct-3-yl]pyrimidin-2-yl}amino)-N-methylpyridine-2-carboxamide]",78,401,> 10000,32,284,–,–,–
"Cn1cc(Nc2nccc(N3C[C@H]4CC[C@@H](C3)N4C3CN(S(C)(=O)=O)C3)n2)cn1 [Example 60, N-(1-methyl-1H-pyrazol-4-yl)-4-{(1R,5S)-8-[1-(methylsulfonyl)azetidin-3-yl]-3,8-diazabicyclo[3.2.1]oct-3-yl}pyrimidin-2-amine]",36,159,> 10000,70,103,–,–,–
"O=C([C@@H]1CC1(F)F)N1[C@@H]2CC[C@H]1CN(c1ccnc(Nc3cnc(CO)c(F)c3)n1)C2 [Example 25, [(1S)-2,2-difluorocyclopropyl][(1R,5S)-3-(2-{[5-fluoro-6-(hydroxymethyl)pyridin-3-yl]amino}pyrimidin-4-yl)-3,8-diazabicyclo[3.2.1]oct-8-yl]methanone]",317,468,> 10000,34,229,–,–,–
"CCNC(=O)N1[C@@H]2CC[C@H]1CN(c1ccnc(Nc3cnc(C(=O)NC)c(C)c3)n1)C2 [Example 91, (1R,5S)—N-ethyl-3-(2-{[5-methyl-6-(methylcarbamoyl)pyridin-3-yl]amino}pyrimidin-4-yl)-3,8-diazabicyclo[3.2.1]octane-8-carboxamide]",183,513,> 10000,39,195,–,–,–
"C[C@@H](CO)c1ccc(Nc2nccc(N3C[C@H]4CC[C@@H](C3)N4C(=O)[C@@H]3CC3(F)F)n2)cn1 (single isomer, unassigned) [Example 11]",139,141,> 10000,–,134,40,–,–
"CNC(=O)c1ncc(Nc2nccc(N3C[C@H]4CC[C@@H](C3)N4[C@H]3C[C@@H](C#N)C3)n2)cc1C (single isomer, unassigned) [Example 61]",–,44,–,18,135,–,31,4080
"CCNC(=O)c1ccc(Nc2nccc(N3CC4CC(C3)N4C(=O)C(C)(F)F)n2)cc1 [Example 114, 4-({4-[6-(2,2-difluoropropanoyl)-3,6-diazabicyclo[3.1.1]hept-3-yl]pyrimidin-2-yl}amino)-N-ethylbenzamide]",955,1860,> 10000,62,166,–,–,–
"Cn1cc(Nc2nccc(N3C[C@H]4CC[C@@H](C3)N4C3CC(C#N)C3)n2)cn1 (stereo partly drawn) [Example 59, 3-[(1R,5S)-3-{2-[(1-methyl-1H-pyrazol-4-yl)amino]pyrimidin-4-yl}-3,8-diazabicyclo[3.2.1]oct-8-yl]cyclobutanecarbonitrile]",78,236,8800,62,84,–,–,–
"CNC(=O)c1ncc(Nc2nccc(N3C[C@H]4CC[C@@H](C3)N4C(=O)[C@@H]3C[C@H]3C#N)n2)cc1F [Example 27, 5-({4-[(1R,5S)-8-{[(1R,2R)-2-cyanocyclopropyl]carbonyl}-3,8-diazabicyclo[3.2.1]oct-3-yl]pyrimidin-2-yl}amino)-3-fluoro-N-methylpyridine-2-carboxamide]",78,640,> 10000,61,139,–,–,–
"O=C([C@@H]1CC1(F)F)N1[C@@H]2CC[C@H]1CN(c1ccnc(Nc3cnc(N4CC(O)C4)c(F)c3)n1)C2 [Example 22, [(1S)-2,2-difluorocyclopropyl][(1R,5S)-3-(2-{[5-fluoro-6-(3-hydroxyazetidin-1-yl)pyridin-3-yl]amino}pyrimidin-4-yl)-3,8-diazabicyclo[3.2.1]oct-8-yl]methanone]",490,312,> 10000,55,410,–,–,–
"CC(C)(C#N)c1ccc(Nc2nccc(N3C[C@H]4CC[C@@H](C3)N4C(=O)[C@@H]3CC3(F)F)n2)cn1 [Example 26, 2-[5-({4-[(1R,5S)-8-{[(1S)-2,2-difluorocyclopropyl]carbonyl}-3,8-diazabicyclo[3.2.1]oct-3-yl]pyrimidin-2-yl}amino)pyridin-2-yl]-2-methylpropanenitrile]",60,192,> 10000,25,247,–,–,–
"CNC(=O)c1ncc(Nc2nccc(N3C[C@H]4CC[C@@H](C3)N4C(=O)[C@@H]3CC3(F)F)n2)cc1Cl [Example 10, 3-chloro-5-({4-[(1R,5S)-8-{[(1S)-2,2-difluorocyclopropyl]carbonyl}-3,8-diazabicyclo[3.2.1]oct-3-yl]pyrimidin-2-yl}amino)-N-methylpyridine-2-carboxamide]",171,367,> 10000,22,439,–,–,–
"CCNC(=O)c1ccc(Nc2nccc(N3CC4CC(C3)N4C(=O)C3CC3)n2)cc1C [Example 113, 4-({4-[6-(cyclopropylcarbonyl)-3,6-diazabicyclo[3.1.1]hept-3-yl]pyrimidin-2-yl}amino)-N-ethyl-2-methylbenzamide]",8580,7860,> 10000,82,939,–,–,–
"Cn1cc(Nc2ncc(F)c(N3C[C@@]4(CO)C[C@@]4(NC(=O)[C@@H]4C[C@H]4C#N)C3)n2)cn1 [Example 110, (1R,2R)-2-cyano-N-[(1S,5S)-3-{5-fluoro-2-[(1-methyl-1H-pyrazol-4-yl)amino]pyrimidin-4-yl}-5-(hydroxymethyl)-3-azabicyclo[3.1.0]hex-1-yl]cyclopropanecarboxamide]",29,455,928,58,146,–,–,–
"O=C([C@@H]1CC1(F)F)N1[C@@H]2CC[C@H]1CN(c1ccnc(Nc3cnc(CCO)c(Cl)c3)n1)C2 [Example 18, [(1R,5S)-3-(2-{[5-chloro-6-(2-hydroxyethyl)pyridin-3-yl]amino}pyrimidin-4-yl)-3,8-diazabicyclo[3.2.1]oct-8-yl][(1S)-2,2-difluorocyclopropyl]methanone]",352,331,> 10000,62,338,–,–,–
"Cn1cc(Nc2nccc(N3C[C@H]4CC[C@@H](C3)N4C[C@@H]3CC3(F)F)n2)cn1 [Example 64, 4-[(1R,5S)-8-{[(1S)-2,2-difluorocyclopropyl]methyl}-3,8-diazabicyclo[3.2.1]oct-3-yl]-N-(1-methyl-1H-pyrazol-4-yl)pyrimidin-2-amine]",95,320,> 10000,41,71,–,–,–
"CNC(=O)c1ncc(Nc2nccc(N3C[C@H]4CC[C@@H](C3)N4Cc3ccno3)n2)cc1C [Example 53, N,3-dimethyl-5-({4-[(1R,5S)-8-(1,2-oxazol-5-ylmethyl)-3,8-diazabicyclo[3.2.1]oct-3-yl]pyrimidin-2-yl}amino)pyridine-2-carboxamide]",226,375,> 10000,24,287,–,–,–
"Cn1cc(Nc2nccc(N3C[C@H]4CC[C@@H](C3)N4Cc3ccno3)n2)cn1 [Example 56, N-(1-methyl-1H-pyrazol-4-yl)-4-[(1R,5S)-8-(1,2-oxazol-5-ylmethyl)-3,8-diazabicyclo[3.2.1]oct-3-yl]pyrimidin-2-amine]",110,394,> 10000,41,78,–,–,–
"Cn1cc(Nc2nccc(N3C[C@H]4CC[C@@H](C3)N4C(=O)C3(F)CC3)n2)cn1 [Example 46, (1-fluorocyclopropyl)[(1R,5S)-3-{2-[(1-methyl-1H-pyrazol-4-yl)amino]pyrimidin-4-yl}-3,8-diazabicyclo[3.2.1]oct-8-yl]methanone]",173,526,4160,84,209,–,–,–
"CNC(=O)c1ncc(Nc2nccc(N3C[C@H]4CC[C@@H](C3)N4C(=O)C3CC3)n2)cc1C [Example 6, 5-({4-[(1R,5S)-8-(cyclopropylcarbonyl)-3,8-diazabicyclo[3.2.1]oct-3-yl]pyrimidin-2-yl}amino)-N,3-dimethylpyridine-2-carboxamide]",337,754,> 10000,36,232,–,–,–
"Cn1cc(Nc2nccc(N3C[C@H]4CC[C@@H](C3)N4Cc3nccs3)n2)cn1 [Example 57, N-(1-methyl-1H-pyrazol-4-yl)-4-[(1R,5S)-8-(1,3-thiazol-2-ylmethyl)-3,8-diazabicyclo[3.2.1]oct-3-yl]pyrimidin-2-amine]",294,1070,> 10000,89,338,–,–,–

# From US9663526B2, “Aminopyrimidinyl compounds” (Pfizer Inc., priority 2014, dated 2017)
